Experimental findings from US9394338B2, “Glutathione analogs and uses thereof” (REGENTS OF THE UNIVERSITY OF MINNESOTA, priority 2011, dated 2016) are described below.

For series [1], the system named is SH-SY-5Y cells. The series is described as follows: cells. Format: cell-based. Conditions: for % Inhibition of Cell Growth with Aβ1-42 / % Inhibition of Cell Growth without Aβ1-42: compound 1 mM 24 h; for % Inhibition of Cell Growth with Aβ1-42: then 20 μM Aβ1-42 24 h. Here is the method:
(§1) Cytotoxicity Studies: Protection against β-amyloid 1-42 cytotoxicity in SH-SY-5Y cells was measured by standard MTT assays. SH-SY-5Y cells were seeded in 96-well plates at the density of 30,000 cells/well. After overnight incubation, the cells were exposed to GSH or Ψ-GSH at a concentration of 1 mM for 24 h at 37° C. After 24 h of incubation, the drug-containing medium was replaced with media containing 20 μM β-amyloid 1-42 peptide and the incubation was allowed to continue for additional 24 hours after the addition of the drugs. At the end of the incubation, 20 μL of MTT stock solution (5 mg/mL) was added to each well and incubated for 3 h at 37° C. The MTT reaction medium was discarded and the purple-blue MTT formazan crystals were dissolved by the addition of 100 μL of 0.1 N HCl in isopropanol. The optical density (OD), a reflection mitochondrial function of the viable cells, was read directly with a microplate reader (BioTek SynergyHT, VT, USA) at 580 nm and a reference wavelength of 680 nm. Concentration response graphs were generated for each drug using GraphPad Prism software (GraphPad Software, Inc., San Diego, Calif., USA). Results are expressed as mean percent inhibition of β-amyloid toxicity with the standard error of the mean. In another set of experiments, cells were preincubated with a glyoxalase I inhibitor, S-(p-bromobenzylglutathione) (1 mM) for 24 hours before addition of βamyloid1-42 peptide (20 μM).
as §1, with “Protection” for “Cytotoxicity Studies: Protection”, “against β-amyloid^1-42” for “against β-amyloid 1-42”, “cells/well. […]” for “cells/well. After overnight incubation, the cells were exposed to GSH or Ψ-GSH at a concentration of 1 mM for 24 h at 37° C.”, “μM β-amyloid^1-42” for “μM β-amyloid 1-42”, “20 μl,” for “20 μL”, “mean.” for “mean. In another set of experiments, cells were preincubated with a glyoxalase I inhibitor, S-(p-bromobenzylglutathione) (1 mM) for 24 hours before addition of βamyloid1-42 peptide (20 μM).”

The subject of series [2] is Swiss Webster Mice. The series is described as follows: ACP (acetaminophen) overdose rescue and effects on normal liver. It counts as in vivo. Particulars: 370 mg/kg ACP + NAC 7.35 mmol/kg. On the procedure: 36-Male Swiss Webster Mice (HSD) were fasted over-night and then brought to the lab at 8:00 am the following day and weighed. Food was kept out of the cages until after the final drug injection. Mice were divided into treatment groups as below in Table 2.
Thirty minutes post overdose with 370 mg/kg ACP, the following were evaluated for the groups in Table 2:
N-acetylcysteine (NAC) at 7.35 mmol/kg;
Ψ-GSH at three different doses, 3.67, 2.45 and 1.22 mmol/kg; and
examine effects of Ψ-GSH on normal liver at rescue doses.

For series [3], the target named is T1, yeast glyoxalase I (Saccharomyces cerevisiae, UniProt P50107).
T1 construct: purchased Sigma
T1 sequence (P50107 1-326): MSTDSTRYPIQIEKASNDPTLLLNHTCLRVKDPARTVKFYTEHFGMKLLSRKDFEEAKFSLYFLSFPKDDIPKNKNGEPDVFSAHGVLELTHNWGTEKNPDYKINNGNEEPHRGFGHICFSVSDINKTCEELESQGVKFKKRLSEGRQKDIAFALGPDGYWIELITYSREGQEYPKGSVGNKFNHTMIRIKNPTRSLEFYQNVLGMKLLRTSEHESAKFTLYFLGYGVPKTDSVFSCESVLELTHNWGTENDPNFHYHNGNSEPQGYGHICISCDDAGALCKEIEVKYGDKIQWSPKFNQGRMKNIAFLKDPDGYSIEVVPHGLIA
The series is described as follows: Glyoxalase I enzyme kinetics assay. Conditions: yeast Glx-I, MG, 30° C., phosphate buffer pH 6.6. It counts as biochemical. On the procedure: Glyoxalase I Enzyme Kinetics Assay. The glutathione analog, Ψ-GSH and asparthione were examined for their ability to act as substrates for the yeast glyoxalase I mediated […] of MG. The commercial 40% methylglyoxal solution was distilled to remove polymerization products. Enzyme assays were performed (30° C., 0.05 M phosphate buffer (pH 6.6)) using a thermostated Beckman DU® 7400 spectrophotometer. Fresh solutions of GSH, Ψ-GSH and asparthione were prepared on the day of the assays with distilled, deionized water. In each assay, the cell contained a total volume of 3.0 mL which was no more than 6.0 mM with respect to methylglyoxal and 1.3 mM with respect to GSH or its analogs. […] Data were analyzed utilizing an Enzyme kinetics module of Sigmaplot 9.0 from Systat Software Inc.

On to “HCl•γ-Gla[Cys-Gly-OiPr]-OiPr [Compound IX]”, for which, in series [1] (SH-SY-5Y), the “% Inhibition of Cell Growth with Aβ1-42” value was found to be 31% and the “% Inhibition of Cell Growth without Aβ1-42” value is 0%. For the molecule `CC(=O)N[C@@H](CS)C(=O)O` [NAC, N-acetylcysteine, reference compound], in series [2], the “death of animals in the group” value stood at 50%. For γ-Glo-Cys-Gly-OH [II], in series [1] (SH-SY-5Y), the “% Inhibition of Cell Growth with Aβ1-42” value is 56% and the “% Inhibition of Cell Growth without Aβ1-42” value was determined as 1%.

“Boc-γ-Gla[-Cys(StBu)-Gly-OtBu]-OtBu [Compound 7]”: in series [1] (SH-SY-5Y), the “% Inhibition of Cell Growth with Aβ1-42” value worked out at 41% and the “% Inhibition of Cell Growth without Aβ1-42” value is 0%. In the case of `N[C@@H](CCC(=O)N[C@@H](CSCc1ccc(Br)cc1)C(=O)NCC(=O)O)C(=O)O` [GSBB, S-p-bromobenzylglutathione, reference compound], the cell death in series [1] (1 mM compound alone, SH-SY-5Y) was found to be 10%. Moreover, the viability (in general, a per cent measure of how many cells are alive, often set against a control) at 1000 µM in series [1] (Homo sapiens, SH-SY5Y, Aβ in combination with 1 mM GSBB, read-out: Percentage cell viability) came out at 23.6%. As for N-acetyl-γ-Gla-Cys-Gly-OH [IV], in series [1] (SH-SY-5Y), the “% Inhibition of Cell Growth with Aβ1-42” value is 3% and the “% Inhibition of Cell Growth without Aβ1-42” value stood at 0%. In the case of [γ-Gla-Cys-Gly-OH]2 [Compound XI], in series [1] (SH-SY-5Y), the “% Inhibition of Cell Growth with Aβ1-42” value came to 24% and the “% Inhibition of Cell Growth without Aβ1-42” value is recorded as 1%. For γ-Glt-Cys-Gly-OH [III] the same measures were 55% and 2%. Take `N[C@@H](CC(=O)N[C@@H](CS)C(=O)NCC(=O)O)C(=O)O` [asparthione]: in series [3], the “slope for initial velocity vs. substrate concentration” value is recorded as 0.0132±0.0136. Regarding Boc-γ-Gla-Cys-Gly-OH [Compound V], in series [1] (SH-SY-5Y), the “% Inhibition of Cell Growth with Aβ1-42” value was found to be 10% and the “% Inhibition of Cell Growth without Aβ1-42” value worked out at 1%. Consider “HCl•γ-Gla[-Cys-Gly-OtBu]-OtBu [Compound VIII]”, for which, in series [1] (SH-SY-5Y), the “% Inhibition of Cell Growth with Aβ1-42” value amounted to 50% and the “% Inhibition of Cell Growth without Aβ1-42” value turned out to be 1%.

With “HCl•γ-Gla[Cys-Gly-OCyP]-OcyP [Compound X]”, in series [1] (SH-SY-5Y), the “% Inhibition of Cell Growth with Aβ1-42” value is recorded as 27% and the “% Inhibition of Cell Growth without Aβ1-42” value turned out to be 0%. For “Boc-γ-Gla(OtBu)-Cys-Gly-OtBu [Compound VI]” the same measures were 18% and 2%.
